According to ChEMBL document CHEMBL1121737, “Synthesis and evaluation of some stable multisubstrate adducts as specific inhibitors of spermidine synthase” (J Med Chem, 1981):

Tests used:
[1] = target: T1, Spermidine synthase (Rattus norvegicus) (UniProt Q99MI5); experiment: Inhibition of spermidine synthase at 100 uM concentration of the compound; values are per cent of control
T1 sequence (whole entry): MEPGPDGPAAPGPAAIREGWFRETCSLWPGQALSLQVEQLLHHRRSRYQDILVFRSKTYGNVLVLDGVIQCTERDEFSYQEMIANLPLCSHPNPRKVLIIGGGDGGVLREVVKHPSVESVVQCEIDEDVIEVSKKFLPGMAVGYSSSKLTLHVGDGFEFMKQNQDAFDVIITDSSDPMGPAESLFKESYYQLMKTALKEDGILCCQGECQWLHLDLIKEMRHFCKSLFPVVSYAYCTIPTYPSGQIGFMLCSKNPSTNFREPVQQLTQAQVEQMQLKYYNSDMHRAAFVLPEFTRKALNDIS

[2] = system: spermine synthase (Rattus norvegicus); experiment: Inhibition of spermine synthase at 25 uM concentration of the compound; values are per cent of control
Spermidine synthase = target: T2, Spermidine synthase (Rattus norvegicus, UniProt Q99MI5); experiment: Inhibitory activity against spermidine synthase; conditions: read-out: I50
T2 sequence (Q99MI5 whole entry): T1 sequence (whole entry)

[3] = target: T1, Spermidine synthase (Rattus norvegicus); experiment: Inhibition of spermidine synthase at 250 uM concentration of the compound; values are per cent of control
[4] = system: spermine synthase (Rattus norvegicus); experiment: Inhibition of spermine synthase at 100 uM concentration of the compound; values are per cent of control
[5] = target: T1, Spermidine synthase (Rattus norvegicus); experiment: Inhibition of spermidine synthase at 10 uM concentration of the compound; values are per cent of control
[6] = target: T1, Spermidine synthase (Rattus norvegicus); experiment: Inhibition of spermidine synthase at 50 uM concentration of the compound; values are per cent of control
[7] = system: spermine synthase (Rattus norvegicus); experiment: Inhibition of spermine synthase at 250 uM concentration of the compound; values are per cent of control
[8] = system: spermine synthase (Rattus norvegicus); experiment: Inhibition of spermine synthase at 10 uM concentration of the compound; values are per cent of control
[9] = target: T1, Spermidine synthase (Rattus norvegicus); experiment: Inhibition of spermidine synthase at 25 uM concentration of the compound; values are per cent of control
[10] = system: spermine synthase (Rattus norvegicus); experiment: Inhibition of spermine synthase at 50 uM concentration of the compound; values are per cent of control
[11] = target: T1, Spermidine synthase (Rattus norvegicus); experiment: Inhibition of spermidine synthase at 5 uM concentration of the compound; values are per cent of control

| residual activity [1] [%] | residual activity [2] [%] | IC50 (Spermidine synthase) [µM] | residual activity [3] [%] | residual activity [4] [%] | residual activity [5] [%] | residual activity [6] [%] | residual activity [7] [%] | residual activity [8] [%] | residual activity [9] [%] | residual activity [10] [%] | residual activity [11] [%] | SMILES |
| --- | --- | --- | --- | --- | --- | --- | --- | --- | --- | --- | --- | --- |
| 80 | 88 | 250 | 56 | 44 | 98 | 93 | 25 | 94 | 99 | 65 |  | CCCCCC(CC)[S+](C)C[C@H]1O[C@H](n2cnc3c(N)ncnc32)[C@H](O)[C@@H]1O (stereo partly drawn) |
| 104 |  |  |  |  |  |  |  |  | 102 |  |  | CCCCCC(CC)SC[C@H]1OC(n2cnc3c(N)ncnc32)[C@H](O)[C@@H]1O (stereo partly drawn) |
| 1 |  |  |  |  | 3 | 1 |  |  | 3 |  |  | NCCCCCC(CCN)SC[C@H]1O[C@@H](n2cnc3c(N)ncnc32)[C@H](O)[C@@H]1O (stereo partly drawn) |
| 8 |  | 15 | 4 | 41 | 68 | 16 | 14 | 93 | 31 | 60 | 84 | C[S+](C[C@H]1O[C@H](n2cnc3c(N)ncnc32)[C@H](O)[C@@H]1O)C(CCN)CCCCCN (stereo partly drawn) |
